Source: ChEMBL document CHEMBL3046341, “Synthesis of an indolizidinedione oxime inhibitor of acetyl-coenzyme a carboxylase (ACCase)” (Bioorg Med Chem Lett, 1994)
pIC50: −log10 of the molar value.

Test: Inhibition of acetyl-coenzyme A carboxylase
Details: read-out: I50

| SMILES | pIC50 |
| --- | --- |
| C=CCO/N=C(\CCC)C1=C(O)N2CCCCC2C1=O (stereo not drawn) | 4.10 |
| O=C1C(c2ccc(Cl)cc2Cl)=C(O)N2CCCCC12 (stereo not drawn) | 4.82 |
| CCO/N=C(\CC)C1=C(O)CC(c2c(C)cc(C)cc2C)CC1=O (stereo not drawn) [TRALKOXYDIM] | 6.00 |
